Experimental data reported in paper PMC10056008 (Pharmaceuticals, 2023).
Like-named read-outs stand apart in the source and are kept apart here. Each block holds one compound with its values, some of them ahead of it.

Tests used:
[1] = Pharmacokinetics of dabigatran etexilate, dabigatran and dabigatran acylglucuronide in plasma after 150 mg dabigatran etexilate with or without simvastatin; format: in vivo, human; details: for AUClast with simvastatin as % of value when administered alone / Cmax with simvastatin as % of value when administered alone: co-administered with simvastatin vs alone; for increase of AUClast after simvastatin co-administration: compared to dabigatran administered alone
Procedure: An open-label, two-period, single sequence clinical study was conducted. After an overnight fast and drinking 200 mL of water one hour before drug administration, eligible subjects were administered with a capsule of dabigatran etexilate 150 mg ([…]®) on the first day of the study. Blood samples for pharmacokinetic and pharmacodynamic analyses were obtained using EDTA tubes and citrate tubes, respectively. […] Subjects remained at fasting stage until 4 h after the administration. […] To ensure compliance, subjects visited the study site for every drug administration. […] Blood samples were obtained at the same time point scheduled as the first day of the study. Adverse events were collected during the entire study period. This study was conducted in accordance with the Declaration of Helsinki, good clinical practice, and local regulation. The study was approved by the Institutional Review Board at Korea University Guro Hospital (2018GR0336, date of approval: 11 October 2018) and registered at ClinicalTrials.gov (NCT03728101). Separate plasma samples were kept frozen below -70 °C until analysis. Plasma concentrations of dabigatran etexilate, dabigatran, and dabigatran acylglucuronide were quantified using a high-performance liquid chromatography (Nanospace series SI-2, Shiseido Co., Ltd., Tokyo, Japan) coupled with tandem mass spectrometry (API4000, AB SCIEX LLC, Framingham, MA, USA) method. The method was validated in terms of selectivity, linearity, precision, accuracy, recovery, matrix effect, and stability prior to the analysis. In brief, 100 μL of plasma samples were deproteinized using 400 μL of acetonitrile and centrifuged at 13,000× g for 20 min. Dabigatran-d3 was used as an internal standard. The supernatants were evaporated and then dissolved in a 300 μL mobile phase consisting of acetonitrile and 10 mM ammonium formate (215:85, v/v). These samples were injected onto an Atlantis HILIC SilicaTM column (2.1 mm × 150 mm, 3 μm, Waters, Milford, MA, USA) at a flow rate of 0.3 mL/min. The mass spectrometer equipped with an electrospray ionization source was operated in a positive ion mode. Selected ion pairs of m/z 629.464→290.100 for dabigatran etexilate, m/z 472.300→289.100 for dabigatran, m/z 648.382→289.100 for dabigatran acylglucuronide were detected. […] Pharmacokinetic parameters of dabigatran etexilate, dabigatran, and dabigatran acylglucuronide were derived from noncompartmental analysis using Phoenix Winnonlin® version 8.3 (Certara, Princeton, NJ, USA). Observed values from individual time-concentration profiles were used for Cmax and Tmax. Area under the time-concentration curve (AUC) was calculated using linear-up log-down trapezoidal rule. The AUC from 0 h to infinity (AUCinf) was calculated as follows: AUCinf = AUC + Ct/ke, where Ct was the last plasma concentration and ke was the elimination rate constant. […] Mean residence time (MRT) was calculated as area under the moment curve from time of dosing to the last measurable concentration divided by AUClast. All statistical analyses were performed using SAS® version 9.4 (SAS Institute Inc., Cary, NC, USA). Descriptive statistics were used to summarize demographic, pharmacokinetic, and pharmacodynamic data. A linear mixed effects model was used to compare Cmax, AUClast, and AUCinf between two treatment periods.

[2] = test system: coagulation; test: Coagulation assay (aPTT, PT, dPT, TT, fibrinogen) in plasma of dosed subjects; format: in vivo, human; details: for Fibrinogen AUEC / Fibrinogen Rmax / PT (INR) AUEC / PT (INR) Rmax / PT (sec) AUEC / PT (sec) Rmax / TT AUEC / TT Rmax / aPTT AUEC / aPTT Rmax / dPT (1:256) AUEC / dPT (1:256) Rmax: mean (SD)
Procedure: An open-label, two-period, single sequence clinical study was conducted. After an overnight fast and drinking 200 mL of water one hour before drug administration, eligible subjects were administered with a capsule of dabigatran etexilate 150 mg ([…]®) on the first day of the study. Blood samples for pharmacokinetic and pharmacodynamic analyses were obtained using EDTA tubes and citrate tubes, respectively. […] Subjects remained at fasting stage until 4 h after the administration. […] To ensure compliance, subjects visited the study site for every drug administration. […] Blood samples were obtained at the same time point scheduled as the first day of the study. Adverse events were collected during the entire study period. This study was conducted in accordance with the Declaration of Helsinki, good clinical practice, and local regulation. The study was approved by the Institutional Review Board at Korea University Guro Hospital (2018GR0336, date of approval: 11 October 2018) and registered at ClinicalTrials.gov (NCT03728101). Anticoagulant assays of aPTT, PT, dPT, TT, and fibrinogen were measured using STA® Compact Max (Stago, Asnieres, France) according to the manufacturer's instructions. […] To measure aPTT, 50 μL of plasma sample was placed in a cuvette in the presence of STA®-PTT (50 μL) and 50 μL of 0.025 M CaCl2. For fibrinogen, 7.5 μL of plasma which was automatically diluted with Owren-Koller buffer was placed into a cuvette and then 50 μL of […] was added. For pharmacodynamic assessment, Phoenix Winnonlin® version 8.3 (Pharsight, Mountain View, CA, USA) was used to calculate AUEC with the linear trapezoidal method and Rmax was directly determined from individual profiles.

[3] = Adverse events, vital signs, clinical laboratory tests, electrocardiogram; format: in vivo, human; details: 12 healthy subjects; except one subject with mild pharyngitis, which resolved
Procedure: An open-label, two-period, single sequence clinical study was conducted. After an overnight fast and drinking 200 mL of water one hour before drug administration, eligible subjects were administered with a capsule of dabigatran etexilate 150 mg ([…]®) on the first day of the study. Blood samples for pharmacokinetic and pharmacodynamic analyses were obtained using EDTA tubes and citrate tubes, respectively. […] Subjects remained at fasting stage until 4 h after the administration. […] To ensure compliance, subjects visited the study site for every drug administration. […] Blood samples were obtained at the same time point scheduled as the first day of the study. Adverse events were collected during the entire study period. This study was conducted in accordance with the Declaration of Helsinki, good clinical practice, and local regulation.

[4] = cited from earlier work
[5] = test system: thrombin generation; test: Thrombin generation assay (TGA) in plasma of dosed subjects; format: in vivo, human; details: mean (SD)
Procedure: An open-label, two-period, single sequence clinical study was conducted. After an overnight fast and drinking 200 mL of water one hour before drug administration, eligible subjects were administered with a capsule of dabigatran etexilate 150 mg ([…]®) on the first day of the study. Blood samples for pharmacokinetic and pharmacodynamic analyses were obtained using EDTA tubes and citrate tubes, respectively. […] Subjects remained at fasting stage until 4 h after the administration. […] To ensure compliance, subjects visited the study site for every drug administration. […] Blood samples were obtained at the same time point scheduled as the first day of the study. Adverse events were collected during the entire study period. This study was conducted in accordance with the Declaration of Helsinki, good clinical practice, and local regulation. […] TGA was performed using a Technothrombin® TGA kit (Technoclone, Vienna, Austria) on a fully automated, computer-controlled microplate reader (Flexstation 3; Molecular Devices, San Jose, CA, USA) with a 360 nm excitation wavelength and 460 nm emission wavelength. In brief, 30 μL of plasma samples were mixed with 25 μL of 400 μmol/L fluorogenic substrate ([…]; Bachem, Bubendorf, Switzerland). The assay was initiated by dispensing 10 μL of 5 pmol/L recombinant human tissue factor lipidated with synthetic phospholipids and 10 μL of 15 mmol/L CaCl2. TGA results are expressed as Cmax, AUC, Tmax, and lag time. For pharmacodynamic assessment, Phoenix Winnonlin® version 8.3 (Pharsight, Mountain View, CA, USA) was used to calculate AUEC with the linear trapezoidal method and Rmax was directly determined from individual profiles.

[6] = 150 mg dabigatran etexilate alone, mean (SD)
[7] = co-administered with simvastatin 40 mg once daily, day 7, mean (SD)
[8] = human, oral, 150 mg dabigatran etexilate alone, plasma, mean (SD)
[9] = human, plasma, oral, 150 mg dabigatran etexilate alone, mean (SD)
[10] = human, plasma, oral, 150 mg dabigatran etexilate alone, mean (SD), read-out: Cmax
[11] = human, plasma, oral, 150 mg dabigatran etexilate alone, mean (SD), read-out: MRT

AUCinf ([1]; human, in vivo, 150 mg): 1576.5 (1154.0) h∙ng/mL | AUClast ([1]; human, in vivo, 150 mg): 1480.1 (1090.5) h∙ng/mL | CL/F ([1]; human, in vivo, 150 mg): 176.8 (161.8) L/h | Cmax ([1]; human, in vivo, 150 mg): 266.8 (187.1) ng/mL | MRT ([1]; human, in vivo, 150 mg): 6.8 (0.9) h | Tmax ([1]; human, in vivo, 150 mg): 2 (1.5–4) h | t1/2 ([1]; human, in vivo, 150 mg): 6.4 (1.9) h
SMILES: Cn1c(CNc2ccc(C(=N)N)cc2)nc2cc(C(=O)N(CCC(=O)OC3O[C@H](C(=O)O)[C@@H](O)[C@H](O)[C@H]3O)c3ccccn3)ccc21 (stereo partly shown) [Dabigatran acylglucuronide]

CL/F [1, 6]: 12,208.4 (16,447.7) L/h | CL/F [1, 7]: 5235.1 (2729.4) L/h | AUClast with simvastatin as % of value when administered alone [1]: 147% | Cmax with simvastatin as % of value when administered alone [1]: 138% | increase of AUClast after simvastatin co-administration [1]: 47% | AUC(0-inf) [1, 8]: 33.7 ng·h/mL | AUC(0-t) [1, 8]: 26.1 ng·h/mL | half-life [1, 9]: 3.4 h | Cmax [1, 10]: 24.5 ng/mL | MRT [1, 11]: 1.9 h | Tmax ([1]; human, plasma, oral, 150 mg dabigatran etexilate alone, median (min–max), read-out: Tmax): 1 h
SMILES: CCCCCCOC(=O)NC(=N)c1ccc(NCc2nc3cc(C(=O)N(CCC(=O)OCC)c4ccccn4)ccc3n2C)cc1 [Dabigatran etexilate]
time of highest mean value of aPTT, PT, dPT and TT ([2]; after administration of dabigatran etexilate): 2 to 4 h | adverse events, vital signs, clinical laboratory tests, electrocardiogram [3]: no adverse events or clinically significant changes | absolute bioavailability [4]: 7% | increase in exposure in mild renal impairment patients vs healthy subjects ([4]; single dose): 1.5 times

CL/F [1, 6]: 362.3 (331.8) L/h | Tmax ([1]; 150 mg dabigatran etexilate alone, median (min–max)): 2 (1–4) h | CL/F [1, 7]: 275.8 (197.4) L/h | AUClast with simvastatin as % of value when administered alone [1]: 121% | Cmax with simvastatin as % of value when administered alone [1]: 124% | increase of AUClast after simvastatin co-administration [1]: 21% | AUC(0-inf) [1, 8]: 664 ng·h/mL | AUC(0-t) [1, 8]: 617 ng·h/mL | half-life [1, 9]: 6.1 h | Cmax [1, 10]: 87 ng/mL | MRT [1, 11]: 7.1 h
SMILES: [H]/N=C(/N)c1ccc(NCc2nc3cc(C(=O)N(CCC(=O)O)c4ccccn4)ccc3n2C)cc1 [Dabigatran]
Thrombin Generation AUC AUEC ([5]; dabigatran alone): 84,994.8 (14,977.1) nM∙min∙h | Thrombin Generation AUC Rmax ([5]; dabigatran alone): 2423.6 (734.9) nM∙min | Thrombin Generation Lag time AUEC ([5]; dabigatran alone): 131.7 (20.8) min∙h | Thrombin Generation Lag time Rmax ([5]; dabigatran alone): 7.8 (1.7) min | Thrombin Generation AUC AUEC ([5]; dabigatran with simvastatin): 79,286.4 (10,676.3) nM∙min∙h | Thrombin Generation AUC Rmax ([5]; dabigatran with simvastatin): 2231.7 (326.0) nM∙min | Thrombin Generation Lag time AUEC ([5]; dabigatran with simvastatin): 128.5 (20.1) min∙h | Thrombin Generation Lag time Rmax ([5]; dabigatran with simvastatin): 8.0 (1.5) min | Fibrinogen AUEC ([2]; dabigatran alone): 6249.8 (1133.1) h∙mg/dL | Fibrinogen Rmax ([2]; dabigatran alone): 288.0 (55.9) mg/dL | PT (INR) AUEC ([2]; dabigatran alone): 26.9 (1.4) | PT (INR) Rmax ([2]; dabigatran alone): 1.3 (0.1) | PT (sec) AUEC ([2]; dabigatran alone): 344.9 (14.3) s∙h | PT (sec) Rmax ([2]; dabigatran alone): 16.6 (1.4) s | TT AUEC ([2]; dabigatran alone): 1690.1 (535.9) s∙h | TT Rmax ([2]; dabigatran alone): 169.2 (74.0) s | aPTT AUEC ([2]; dabigatran alone): 1203.1 (153.1) s∙h | aPTT Rmax ([2]; dabigatran alone): 69.5 (13.8) s | dPT (1:256) AUEC ([2]; dabigatran alone): 1404.8 (184.7) s∙h | dPT (1:256) Rmax ([2]; dabigatran alone): 87.5 (19.2) s | Fibrinogen AUEC ([2]; dabigatran with simvastatin): 6040.9 (758.3) h∙mg/dL | Fibrinogen Rmax ([2]; dabigatran with simvastatin): 309.3 (96.0) mg/dL | PT (INR) AUEC ([2]; dabigatran with simvastatin): 27.7 (1.2) | PT (INR) Rmax ([2]; dabigatran with simvastatin): 1.4 (0.1) | PT (sec) AUEC ([2]; dabigatran with simvastatin): 353.8 (12.3) s∙h | PT (sec) Rmax ([2]; dabigatran with simvastatin): 17.2 (1.4) s | TT AUEC ([2]; dabigatran with simvastatin): 1976.2 (643.8) s∙h | TT Rmax ([2]; dabigatran with simvastatin): 180.7 (50.4) s | aPTT AUEC ([2]; dabigatran with simvastatin): 1235.7 (131.7) s∙h | aPTT Rmax ([2]; dabigatran with simvastatin): 71.7 (12.2) s | dPT (1:256) AUEC ([2]; dabigatran with simvastatin): 1482.9 (144.9) s∙h | dPT (1:256) Rmax ([2]; dabigatran with simvastatin): 92.5 (15.3) s | influence of atorvastatin on pharmacokinetics or pharmacodynamics of dabigatran ([4]; healthy volunteers): No influence | fraction excreted via urine ([4]; intravenous dabigatran): 85%
